The values below come from US20130172345A1, “1-ACYL-4-(PHENOXY, BENZYLOXY, OR PHENYLAMINO)-1,2,3,4-TETRAHYDROQUINOLINE DERIVATIVES” (KOWA COMPANY, LTD., priority 2007, published 2013).

The structures appear in SMILES notation. Counter-ions that a name gives are not always drawn.

The subject of experiment [1] is HepG2 cells originating from human liver cancer. The experiment in a line: EPO production in HepG2 cells (EPO ELISA of culture supernatant, 4% oxygen, 48 hrs). Format: cell-based. Conditions: test compound 3 μM, oxygen 4%, non-stimulated state = 100%, read-out: EPO production amount, % of control (3 μM). As to the method: HepG2 cells originating from human liver cancer were seeded at a density of 1×10^4 cells per well on a 24-well plate by using minimum essential medium (MEM, manufactured by Sigma) comprising 10% bovine fetal serum. Next day, the medium was exchanged with Dulbecco's modified eagle medium (DMEM, manufactured by Sigma) comprising 10% bovine fetal serum lacking phenol red. Then, the test compound dissolved in DMSO was added thereto to obtain the final concentration of 3 μM or 10 μM while having 400 μl of the medium per well. The cells were incubated for 48 hrs in a CO2 incubator which had been adjusted to have oxygen concentration of 4%, followed by collecting the culture supernatant. The EPO concentration in the culture supernatant was immediately measured by using EPO ELISA kit (manufactured by Roche Diagnostics K.K.). Specific procedures were carried out according to the manufacturer's protocol included in the kit.
When EPO production amount in non-stimulated state, i.e., without addition of any compound, was 100%, the EPO production amount induced by each compound was calculated (% of control).

The subject of experiment [2] is K562 cells, human proerythroblast cells. The experiment in a line: Hemoglobin production in K562 cells (fluorescence of the porphyrin ring). It is filed as cell-based. To be noted: 144 h, test compound 6 μM, 3+3 days, non-stimulated state = 100%, read-out: production amount of hemoglobin, % of control (6 μM). The procedure: K562 cells (obtained from ATCC), which are human proerythroblast cells, were seeded at a density of 1×10^5 cells/1 mL on a 24-well plate by using complete medium (RPMI-1640 medium comprising 10% bovine fetal serum). After adding the test compound having 1000× concentration (1 μL), the cells were incubated for three days in a CO2 incubator (37° C., 5% CO2). After exchanging the medium, the cells were further incubated for three days. Then, the cells were collected and counted. After adjusting them to have 3×10^5 cells, the amount of hemoglobin produced in the cells was determined by measuring fluorescence of the porphyrin ring. Specifically, the cells which had been collected by centrifugation were suspended in 2 M oxalic acid solution (500 μL) and boiled for 30 minutes under heating. After cooling the cells, the fluorescence intensity was measured by Fluorescence micro plate reader (Spectra MAX GeminiEM, manufactured by Molecular Devices Corporation) ([…]). When hemoglobin amount in non-stimulated state, i.e., without addition of any compound, was 100%, the production amount of hemoglobin induced by each compound was calculated (% of control).

In the case of `CC1CC(Nc2ccccc2)c2ccccc2N1C(=O)C1CC1` (centres unmarked) [Compound 47, 1-cyclopropanecarbonyl-2-methyl-4-phenylamino-1,2,3,4-tetrahydroquinoline], in experiment [1], the activity at 3 µM came out at 292%. In experiment [2], the activity at 6 µM is 701%.
The matching figures for `CC(=O)N1c2ccccc2C(Nc2ccc(Oc3ccccc3)cc2)CC1C` (centres unmarked) [Compound 17, 1-acetyl-4-[(4-phenoxyphenyl)amino]-2-methyl-1,2,3,4-tetrahydroquinoline]: 172% and 517%.
For the compound `CC(=O)N1c2ccccc2[C@H](Oc2cccc(F)c2)C[C@@H]1C` (relative stereo) [Compound 28, cis-1-acetyl-4-(3-fluorophenoxy)-2-methyl-1,2,3,4-tetrahydroquinoline], the activity at 3 µM in experiment [1] worked out at 167%. In addition, in experiment [2], the activity at 6 µM is 216%.
The like results for `CC(=O)N1c2ccccc2C(Nc2ccc(N(C)C)cc2)CC1C` (centres unmarked) [Compound 20, 1-acetyl-4-[(4-N,N-dimethylaminophenyl)amino]-2-methyl-1,2,3,4-tetrahydroquinoline.2 hydrochloride] were, in that order, 174% and 117%.
The like results for `CC(=O)N1c2cc(F)ccc2[C@H](Oc2ccc(F)cc2)C[C@@H]1C` (relative stereo) [Compound 56, cis-1-acetyl-7-fluoro-4-(4-fluorophenoxy)-2-methyl-1,2,3,4-tetrahydroquinoline] were, in that order, 213% and 119%.
The matching figures for `CC(=O)N1c2ccccc2[C@H](Oc2ccccc2F)C[C@@H]1C` (relative stereo) [Compound 29, cis-1-acetyl-4-(2-fluorophenoxy)-2-methyl-1,2,3,4-tetrahydroquinoline]: 305% and 201%.
In the case of `CC(=O)N1c2ccccc2C(Nc2ccc(CC(N)=O)cc2)CC1C` (centres unmarked) [Compound 75, 1-acetyl-4-[(4-carbamoylmethylphenyl)amino]-2-methyl-1,2,3,4-tetrahydroquinoline], in experiment [1], the activity at 3 µM is 346%. Also, in experiment [2], the activity at 6 µM turned out to be 282%.
The like results for `CC(=O)N1c2ccccc2[C@H](Oc2ccc(O)cc2)C[C@@H]1C` (relative stereo) [Compound 57, cis-1-acetyl-4-(4-hydroxyphenoxy)-2-methyl-1,2,3,4-tetrahydroquinoline] were, in that order, 251% and 221%.
The like results for `CCOC(=O)c1ccc2c(c1)C(Nc1ccc(CC#N)cc1)CC(C)N2C(C)=O` (centres unmarked) [Compound 103, ethyl 1-acetyl-4-[(4-cyanomethylphenyl)amino]-2-methyl-1,2,3,4-tetrahydroquinoline-6-carboxylate] were, in that order, 108% and 485%.
The matching figures for `CC(=O)N1c2ccc(N3CCOCC3)cc2C(Nc2ccc(Cl)cc2)CC1C` (centres unmarked) [Compound 40, 1-acetyl-4-[(4-chlorophenyl)amino]-2-methyl-6-morpholino-1,2,3,4-tetrahydroquinoline.hydrochloride]: 144% and 256%.
Take `CC(=O)N1c2ccccc2C(Nc2ccc(CO)cc2)CC1C` (centres unmarked) [Compound 38, 1-acetyl-4-[(4-hydroxymethylphenyl)amino]-2-methyl-1,2,3,4-tetrahydroquinoline]: in experiment [1], the activity at 3 µM worked out at 201%. Also, the activity at 6 µM in experiment [2] worked out at 190%.
The matching figures for `CC(=O)N1c2ccccc2C(Nc2cccc(F)c2)CC1C` (centres unmarked) [Compound 16, 1-acetyl-4-[(3-fluorophenyl)amino]-2-methyl-1,2,3,4-tetrahydroquinoline]: 288% and 416%.
The like results for `COc1cccc(NC2CC(C)N(C(C)=O)c3ccccc32)c1` (centres unmarked) [Compound 11, 1-acetyl-4-[(3-methoxyphenyl)amino]-2-methyl-1,2,3,4-tetrahydroquinoline] were, in that order, 163% and 361%.
Regarding `CNC(=O)N1c2ccc(F)cc2C(Nc2ccc(F)cc2)CC1C` (centres unmarked) [Compound 65, 6-fluoro-4-[(4-fluorophenyl)amino]-2-methyl-1-N-methylcarbamoyl-1,2,3,4-tetrahydroquinoline], the activity at 3 µM in experiment [1] amounted to 414%. Further, the activity at 6 µM in experiment [2] was found to be 461%.
The like results for `CC(=O)N1c2ccc(NS(C)(=O)=O)cc2C(Nc2ccc(Cl)cc2)CC1C` (centres unmarked) [Compound 45, 1-acetyl-4-[(4-chlorophenyl)amino]-2-methyl-6-methanesulfonylamino-1,2,3,4-tetrahydroquinoline] were, in that order, 286% and 387%.
The matching figures for `CC(=O)N1c2ccccc2[C@H](Oc2ccccc2)C[C@@H]1C` (relative stereo) [Compound 26, cis-1-acetyl-2-methyl-4-phenoxy-1,2,3,4-tetrahydroquinoline]: 214% and 188%.
The like results for `CC(=O)N1c2ccc(C(N)=O)cc2[C@H](Oc2ccc(F)cc2)C[C@@H]1C` (relative stereo) [Compound 54, cis-1-acetyl-4-(4-fluorophenoxy)-2-methyl-1,2,3,4-tetrahydroquinoline-6-carboxamide] were, in that order, 148% and 186%.
Turning to `CC(=O)N1c2ccc(Br)cc2C(Nc2ccc(Cl)cc2)CC1C` (centres unmarked) [Compound 74, 1-acetyl-6-bromo-4-[(4-chlorophenyl)amino]-2-methyl-1,2,3,4-tetrahydroquinoline], in experiment [1], the activity at 3 µM came to 398%. Moreover, the activity at 6 µM in experiment [2] is 375%.
The matching figures for `CC(=O)N1c2cc(C#N)ccc2[C@H](Nc2ccccc2)C[C@@H]1C` (relative stereo) [Compound 7, cis-1-acetyl-7-cyano-2-methyl-4-phenylamino-1,2,3,4-tetrahydroquinoline]: 261% and 260%.
The matching figures for `CCOC(=O)c1ccc2c(c1)C(Oc1ccc(F)cc1)CC(C)N2C(C)=O` (centres unmarked) [Compound 53, ethyl 1-acetyl-4-(4-fluorophenoxy)-2-methyl-1,2,3,4-tetrahydroquinoline-6-carboxylate]: 134% and 307%.
The matching figures for `CC(=O)N1c2ccccc2C(Nc2ccc(N3CCNCC3)cc2)CC1C` (centres unmarked) [Compound 76, 1-acetyl-2-methyl-4-[(4-piperazinylphenyl)amino]-1,2,3,4-tetrahydroquinoline]: 227% and 185%.
For `CC(=O)N1c2ccc(C(N)=O)cc2C(Nc2ccc(N3CCOCC3)cc2)CC1C` (centres unmarked) [Compound 92, 1-acetyl-2-methyl-4-[(4-morpholinophenyl)amino]-1,2,3,4-tetrahydroquinoline-6-carboxamide], the activity at 3 µM in experiment [1] was 192%. The activity at 6 µM in experiment [2] came out at 128%.
The matching figures for `COc1ccccc1NC1CC(C)N(C(C)=O)c2ccccc21` (centres unmarked) [Compound 12, 1-acetyl-4-[(2-methoxyphenyl)amino]-2-methyl-1,2,3,4-tetrahydroquinoline]: 197% and 398%.
The matching figures for `CC(=O)N1c2ccc(C(N)=O)cc2[C@H](Nc2ccc(CC(=O)O)cc2)C[C@@H]1C` (relative stereo) [Compound 105, cis-1-acetyl-4-[(4-carboxymethylphenyl)amino]-2-methyl-1,2,3,4-tetrahydroquinoline-6-carboxamide]: 245% and 358%.
The matching figures for `CC(=O)N1c2ccccc2C(N(C)c2ccccc2)CC1C` (centres unmarked) [Compound 46, 1-acetyl-4-(N-methyl-N-phenylamino)-2-methyl-1,2,3,4-tetrahydroquinoline]: 391% and 326%.
Take `CC(=O)N1c2ccccc2C(Nc2ccccc2N2CCOCC2)CC1C` (centres unmarked) [Compound 72, 1-acetyl-2-methyl-4-[(2-morpholinophenyl)amino]-1,2,3,4-tetrahydroquinoline]: the activity at 3 µM in experiment [1] stood at 243%. Besides, the activity at 6 µM in experiment [2] came to 577%.
The matching figures for `CC(=O)N1CCN(c2ccc(N[C@@H]3C[C@H](C)N(C(C)=O)c4ccccc43)cc2)CC1` (relative stereo) [Compound 77, cis-1-acetyl-4-{[4-(4-acetylpiperazinyl)phenyl]amino}-2-methyl-1,2,3,4-tetrahydroquinoline]: 221% and 120%.
With `CC(=O)N1c2ccccc2C(Nc2ccc(N3CCOCC3)cc2)CC1C` (stereo not drawn) [Compound 19, cis-1-acetyl-2-methyl-4-[(4-morpholinophenyl)amino]-1,2,3,4-tetrahydroquinoline.hydrochloride], the activity at 3 µM in experiment [1] was found to be 191%. For the same compound, in experiment [2], the activity at 6 µM was 284%.
